Reference: ChEMBL document CHEMBL1138648, “Synthesis of new N-(2-(trifluoromethyl)pyridin-4-yl)anthranilic acid derivatives and their evaluation as anticancer agents” (2004)

Experiments:
Type in all cases: functional
[1] = tested on: SW-620; assay: Growth inhibitory activity against colon cancer SW-620 cell line was determined; conditions: Homo sapiens
[2] = tested on: HCT-15; assay: Growth inhibitory activity against colon cancer HCT-15 cell line was determined; conditions: Homo sapiens
[3] = tested on: M14; assay: Growth inhibitory activity against Melanoma M14 cell line was determined; conditions: Homo sapiens
[4] = tested on: MDA-MB-231; assay: Growth inhibitory activity against Breast cancer MDA-MB-231/ATCC cell line was determined; conditions: Homo sapiens
[5] = tested on: NCI-H460; assay: In vitro percent of proliferation of vehicle treated NCI-H460 human lung cell lines was determined at 0.0010 M concentration
[6] = tested on: MCF7; assay: Growth inhibitory activity against Breast cancer MCF-7 cell line was determined; conditions: Homo sapiens
[7] = tested on: MCF7; assay: In vitro percent of proliferation of vehicle treated MCF-7 human breast cell lines was determined at 0.0010 M concentration
[8] = tested on: SF-539; assay: Growth inhibitory activity against CNS cancer SF-539 cell line was determined; conditions: Homo sapiens
[9] = tested on: HCT-116; assay: Growth inhibitory activity against colon cancer HCT116 cell line was determined; conditions: Homo sapiens
[10] = tested on: NCI-H522; assay: Growth inhibitory activity against non small cell lung cancer H522 cell line was determined; conditions: Homo sapiens
[11] = tested on: UACC-257; assay: Growth inhibitory activity against Melanoma UACC-257 cell line was determined; conditions: Homo sapiens
[12] = tested on: Hs-578T; assay: Growth inhibitory activity against Breast cancer HS 578T cell line was determined; conditions: Homo sapiens
[13] = tested on: LOX IMVI; assay: Growth inhibitory activity against Melanoma LOX IMVI cell line; conditions: Homo sapiens
[14] = tested on: NCI-H322M; assay: Growth inhibitory activity against non small cell lung cancer NCI-H322M cell line was determined; conditions: Homo sapiens
[15] = tested on: KM12; assay: Growth inhibitory activity against colon cancer KM12 cell line was determined; conditions: Homo sapiens
[16] = tested on: OVCAR-5; assay: Growth inhibitory activity against Ovarian cancer OVCAR-5 cell line was determined; conditions: Homo sapiens
[17] = tested on: HOP-62; assay: Growth inhibitory activity against non small cell lung cancer HOP-62 cell line was determined; conditions: Homo sapiens
[18] = tested on: RPMI-8226; assay: Growth inhibitory activity against Leukemia RPMI-8226 cell line was determined; conditions: Homo sapiens
[19] = tested on: RXF 393; assay: Growth inhibitory activity against Renal cancer RXF 393 cell line was determined; conditions: Homo sapiens
[20] = tested on: BT-549; assay: Growth inhibitory activity against Breast cancer BT-549 cell line was determined; conditions: Homo sapiens
[21] = tested on: NCI-H226; assay: Growth inhibitory activity against non small cell lung cancer NCI-H226 cell line was determined; conditions: Homo sapiens
[22] = tested on: SF-295; assay: Growth inhibitory activity against CNS cancer SF-295 cell line was determined; conditions: Homo sapiens
[23] = tested on: HOP-92; assay: Growth inhibitory activity against non small cell lung cancer HOP-92 cell line was determined; conditions: Homo sapiens
[24] = tested on: SF-268; assay: In vitro percent of proliferation of vehicle treated SF-268 human CNS cell lines was determined at 0.0010 M concentration
[25] = tested on: SN12C; assay: Growth inhibitory activity against Renal cancer SN12C cell line was determined; conditions: Homo sapiens
[26] = tested on: CAKI-1; assay: Growth inhibitory activity against Renal cancer CAKI-1 cell line was determined; conditions: Homo sapiens
[27] = tested on: OVCAR-4; assay: Growth inhibitory activity against Ovarian cancer OVCAR-4 cell line was determined; conditions: Homo sapiens
[28] = tested on: OVCAR-8; assay: Growth inhibitory activity against Ovarian cancer OVCAR-8 cell line was determined; conditions: Homo sapiens
[29] = tested on: NCI/ADR-RES; assay: Growth inhibitory activity against Breast cancer NCI/ADR-RES cell line was determined; conditions: Homo sapiens
[30] = tested on: SNB-19; assay: Growth inhibitory activity against CNS cancer SNB-19 cell line was determined; conditions: Homo sapiens
[31] = tested on: NCI-H23; assay: Growth inhibitory activity against non small cell lung cancer NCI-H23 cell line was determined; conditions: Homo sapiens
[32] = tested on: CCRF-CEM; assay: Growth inhibitory activity against Leukemia CCRF-CEM cell line was determined; conditions: Homo sapiens
[33] = tested on: HCC 2998; assay: Growth inhibitory activity against colon cancer HCC2998 cell line was determined; conditions: Homo sapiens
[34] = tested on: SK-MEL-5; assay: Growth inhibitory activity against Melanoma SK-MEL-5 cell line was determined; conditions: Homo sapiens
[35] = tested on: MDA-MB-435; assay: Growth inhibitory activity against Breast cancer MDA-MB-435 cell line was determined; conditions: Homo sapiens
[36] = tested on: EKVX; assay: Growth inhibitory activity against non small cell lung cancer EKVX cell line was determined; conditions: Homo sapiens
[37] = tested on: SK-MEL-28; assay: Growth inhibitory activity against Melanoma SK-MEL-28 cell line was determined; conditions: Homo sapiens
[38] = tested on: COLO 205; assay: Growth inhibitory activity against colon cancer COLO 205 cell line was determined; conditions: Homo sapiens
[39] = tested on: SR; assay: Growth inhibitory activity against Leukemia SR cell line was determined; conditions: Homo sapiens
[40] = tested on: 786-0; assay: Growth inhibitory activity against Renal cancer 786-0 cell line was determined; conditions: Homo sapiens
[41] = tested on: SK-OV-3; assay: Growth inhibitory activity against Ovarian cancer SK-OV-3 cell line was determined; conditions: Homo sapiens
[42] = tested on: OVCAR-3; assay: Growth inhibitory activity against Ovarian cancer OVCAR-3 cell line was determined; conditions: Homo sapiens
[43] = tested on: U-251; assay: Growth inhibitory activity against CNS cancer U251 cell line was determined; conditions: Homo sapiens
[44] = tested on: HL-60; assay: Growth inhibitory activity against Leukemia HL-60(TB) cell line was determined; conditions: Homo sapiens
[45] = tested on: UACC-62; assay: Growth inhibitory activity against Melanoma UACC-62 cell line was determined; conditions: Homo sapiens
[46] = tested on: A549; assay: Growth inhibitory activity against non small cell lung cancer A549/ATCC cells; conditions: Homo sapiens
[47] = tested on: MOLT-4; assay: Growth inhibitory activity against Leukemia MOLT-4 cell line was determined; conditions: Homo sapiens
[48] = tested on: K562; assay: Growth inhibitory activity against Leukemia K-562 cell line was determined; conditions: Homo sapiens
[49] = tested on: DU-145; assay: Growth inhibitory activity against Prostate cancer DU-145 cell line was determined; conditions: Homo sapiens
[50] = tested on: TK-10; assay: Growth inhibitory activity against Renal cancer TK-10 cell line was determined; conditions: Homo sapiens
[51] = tested on: NCI-H460; assay: Growth inhibitory activity against non small cell lung cancer H460 cell line was determined; conditions: Homo sapiens
[52] = tested on: ACHN; assay: Growth inhibitory activity against Renal cancer ACHN cell line was determined; conditions: Homo sapiens
[53] = tested on: A498; assay: Growth inhibitory activity against Renal cancer A498 cell line was determined; conditions: Homo sapiens
[54] = tested on: PC-3; assay: Growth inhibitory activity against Prostate cancer PC-3 cell line was determined; conditions: Homo sapiens
[55] = tested on: HT-29; assay: Growth inhibitory activity against colon cancer HT-29 cell line was determined; conditions: Homo sapiens
[56] = tested on: SF-268; assay: Growth inhibitory activity against CNS cancer SF-268 cell line was determined; conditions: Homo sapiens

O=C(Oc1cccnc1)c1ccccc1Nc1ccnc(C(F)(F)F)c1
GI50 [1]: 60 nM
GI50 [2]: 290 nM
GI50 [3]: 30 nM
GI50 [4]: 390 nM
Proliferation [5]: 22%
GI50 [6]: 160 nM
Proliferation [7]: 62%
GI50 [8]: 10 nM
GI50 [9]: 30 nM
GI50 [10]: 410 nM
GI50 [11]: 55000 nM
GI50 [12]: 570 nM
GI50 [13]: 50 nM
GI50 [14]: 2900 nM
GI50 [15]: 310 nM
GI50 [16]: 490 nM
GI50 [17]: 10 nM
GI50 [18]: 50 nM
GI50 [19]: 340 nM
GI50 [20]: 10 nM
GI50 [21]: 510 nM
GI50 [22]: 310 nM
GI50 [23]: 480 nM
Proliferation [24]: 75%
GI50 [25]: 410 nM
GI50 [26]: 50 nM
GI50 [27]: 460 nM
GI50 [28]: 690 nM
GI50 [29]: 80 nM
GI50 [30]: 330 nM
GI50 [31]: 60 nM
GI50 [32]: 30 nM
GI50 [33]: 360 nM
GI50 [34]: 170 nM
GI50 [35]: 60 nM
GI50 [36]: 390 nM
GI50 [37]: 660 nM
GI50 [38]: 140 nM
GI50 [39]: 10 nM
GI50 [40]: 270 nM
GI50 [41]: 250 nM
GI50 [42]: 140 nM
GI50 [43]: 520 nM
GI50 [44]: 44000 nM
GI50 [45]: 350 nM
GI50 [46]: 720 nM
GI50 [47]: 30 nM
GI50 [48]: 40 nM
GI50 [49]: 220 nM
GI50 [50]: 270 nM
GI50 [51]: 340 nM
GI50 [52]: 260 nM
GI50 [53]: 520 nM
GI50 [54]: 420 nM
GI50 [55]: 50 nM
GI50 [56]: 60 nM
